Here are results for six compounds from patent publication US9487489B2, “Halogen-substituted pyrazole derivatives as pest-control agents” (BAYER CROPSCIENCE AKTIENGESELLSCHAFT, priority 2013, dated 2016).

Data set [1] in a line: logP determination by HPLC on a reversed-phase column (C18), EEC Directive 79/831 Annex V.A8. Format: physicochemical. Put shortly:
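Retention on a C18 reversed-phase column (Zorbax Eclipse Plus, 1.8 micron) was used, eluting with acetonitrile/water, each containing formic acid. The gradient ran from 10% to 95% acetonitrile over 4.25 min, then held 1.25 min, at 55° C and 2.0 ml/min, with MS detection.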

Data set [2] relates to engorged adult female cattle ticks (Boophilus microplus). As to the kind of experiment: Boophilus microplus injection test (BOOPMI Inj). Format: in vivo. Conditions: application rate 20 μg/animal; injection into abdomen; assessed after 7 days. Put shortly: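 DMSO solution of compound (1 μl) injected into the abdomen of 5 engorged adult female ticks, which are then held in a climate-controlled room. After 7 days, efficacy is scored from laying of fertile eggs, with unclear eggs kept until larval hatch (~42 days); 100% means no fertile eggs, 0% all fertile.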

Data set [3] has as its system adult cat fleas (Ctenocephalides felis). As to the kind of experiment: Ctenocephalides felis oral test (CTECFE). As to conditions: application rate 100 ppm in citrated cattle blood; after 2 days. Format: in vivo. Put shortly: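 About 20 unfed adult cat fleas fed through parafilm membrane on citrated cattle blood containing compound (DMSO stock diluted in blood to test concentration). Kill % scored after 2 days (100% = all fleas dead).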

In data set [4] the test system is adult houseflies (Musca domestica). The experiment in a line: Musca domestica test (MUSCDO). Format: in vivo. As to conditions: application rate 100 ppm; after 2 days. In short, it runs like this:
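Compound dissolved in DMSO and diluted with water to the test concentration, applied with sugar solution on a sponge; 10 adult houseflies per vessel. Mortality scored after 2 days as % kill (100% all dead, 0% none).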

Data set [5] relates to larvae of the mustard beetle (Phaedon cochleariae). The experiment in a line: Phaedon cochleariae spray test (PHAECO). Format: in vivo. Conditions: application rate 100 g/ha; Chinese cabbage leaf discs; after 7 days. In short, it runs like this: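 Compound dissolved in acetone/dimethylformamide with alkylaryl polyglycol ether emulsifier, made up in water containing 1000 ppm emulsifier, then diluted to test concentrations and sprayed against mustard beetle larvae. Efficacy (% larvae killed) scored after 7 days.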

Data set [6] deals with caterpillars of the armyworm (Spodoptera frugiperda). The experiment in a line: Spodoptera frugiperda spray test (SPODFR). Format: in vivo. As to conditions: application rate 100 g/ha; maize leaf discs; after 7 days. In short, it runs like this: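 Maize leaf discs sprayed with compound in acetone/DMF with alkylaryl polyglycol ether emulsifier (1000 ppm) in water, dried, then infested with armyworm caterpillars. Mortality (%) scored after 7 days; 100% = all caterpillars killed, 0% = none killed.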

In data set [7] the test system is adult cat fleas (Ctenocephalides felis). As to the kind of experiment: Ctenocephalides felis in vitro contact test with adult cat fleas (T1). As to conditions: after 48 h. In short, it runs like this: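 Test compound was dissolved in acetone p.a. (9 mg per 1 ml) and diluted as needed. 250 μl was spread evenly over the inner walls and floor of a 25 ml test tube by rotating on an orbital shaker for 2 h at 30 rpm. Once the solvent evaporated, 5-10 adult Ctenocephalides felis were added. Tubes were capped with a perforated plastic lid and kept horizontal at room temperature and ambient humidity.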

Data set [8] relates to adult castor bean ticks (Ixodes ricinus). As to the kind of experiment: Ixodes ricinus in vitro contact test with adult castor bean ticks (T3). As to conditions: after 48 h. Put shortly: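 Test compound was dissolved in acetone p.a. (9 mg in 1 ml) and diluted with acetone; 250 μl were spread evenly over the inner walls and floor of 25 ml test tubes by rocking on an orbital shaker (2 h, 30 rpm). Once the solvent evaporated, 5-10 adult Ixodes ricinus ticks were added, tubes closed with perforated lids and kept horizontally in darkness at 22° C. and 90% humidity. After 48 h, ticks were placed on a 45-50° C. hotplate for up to 5 min; those motionless or unable to climb away were scored dead or moribund.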

Where [9] appears, read: HPLC on reversed-phase column (C18), acetonitrile/water with formic acid, EEC Directive 79/831 Annex V.A8.
Setting [10] is: HPLC, reversed-phase C18, acetonitrile (0.1% formic acid)/water (0.09% formic acid) gradient.

In data set [1] (setting [9]), `Cn1nc(C(F)(F)C(F)(F)F)c(C(F)(F)F)c1-n1cc(-c2ccc(F)c(C(=O)NC3CC3)c2)cn1` [Ic-37] returned a logP of 3.79. Besides, the “efficacy (laying of fertile eggs)” value in data set [2] amounted to 100%. In addition, the “efficacy (kill in %)” value in data set [3] and in data set [4] was 100% each time. Further, the efficacy in % in data set [5] and in data set [6] was 100% throughout. The “efficacy (dead or moribund fleas)” value in data set [7] (application rate 1 μg/cm^2) and in data set [7] (application rate 5 μg/cm^2) was 100% throughout. The “efficacy (dead or moribund ticks)” value in data set [8] (application rate 1 μg/cm^2) and in data set [8] (application rate 5 μg/cm^2) was 100% in each case.

Regarding `Cn1nc(C(F)(F)C(F)(F)F)c(C(F)(F)F)c1-n1ccc(-c2ccc(Cl)c(C(=O)NC3CC3)c2)c1` [Ia-2], the logP in data set [1] (setting [10]) came out at 4.08. In addition, the “efficacy (laying of fertile eggs)” value in data set [2] was 100%. Also, the entries for the “efficacy (kill in %)” value in data set [3] and in data set [4] were 100% and 90%, respectively. The efficacy in % in data set [5] and in data set [6] was 100% throughout. Also, the “efficacy (dead or moribund fleas)” value in data set [7] (application rate 1 μg/cm^2) and in data set [7] (application rate 5 μg/cm^2) was 100% in each case. In addition, the “efficacy (dead or moribund ticks)” value in data set [8] (application rate 1 μg/cm^2) and in data set [8] (application rate 5 μg/cm^2) was 100% each time.

Turning to `Cn1nc(C(F)(F)C(F)(F)F)c(C(F)(F)F)c1-n1cc(-c2ccc(Cl)c(C(=O)NC3CC3F)c2)cn1` (stereo not drawn) [Ic-81], the logP in data set [1] (setting [9]) is on record as 3.8. Also, the “efficacy (laying of fertile eggs)” value in data set [2] was found to be 100%. In addition, the “efficacy (kill in %)” value in data set [3] and in data set [4] was 100% each time. The efficacy in % in data set [5] and in data set [6] was 100% in each case. Also, the “efficacy (dead or moribund fleas)” value in data set [7] (application rate 1 μg/cm^2) and in data set [7] (application rate 5 μg/cm^2) was 100% in each case. Moreover, the “efficacy (dead or moribund ticks)” value in data set [8] (application rate 1 μg/cm^2) and in data set [8] (application rate 5 μg/cm^2) was 100% each time.

`Cn1nc(C(F)(F)C(F)(F)F)c(C(F)(F)F)c1-n1ccc(-c2ccc(Cl)c(C(=O)NC3(C#N)CC3)c2)c1` [Ia-1] returned a logP in data set [1] (setting [10]) of 3.99. Moreover, the “efficacy (laying of fertile eggs)” value in data set [2] amounted to 100%. Moreover, the “efficacy (kill in %)” value in data set [3] was 100%; in data set [4], 80%. Moreover, the efficacy in % in data set [5] and in data set [6] was 100% in each case. The “efficacy (dead or moribund fleas)” value in data set [7] (application rate 1 μg/cm^2) and in data set [7] (application rate 5 μg/cm^2) was 100% throughout. The “efficacy (dead or moribund ticks)” value in data set [8] (application rate 1 μg/cm^2) and in data set [8] (application rate 5 μg/cm^2) was 100% in each case.

For `CCn1nc(C(F)(F)C(F)(F)F)c(C(F)(F)F)c1-n1cc(-c2ccc(Cl)c(C(=O)NC3CC3)c2)cn1` [Ic-16], the logP in data set [1] (setting [9]) came out at 4.14. In data set [2], the “efficacy (laying of fertile eggs)” value is given as 100%. In addition, the “efficacy (kill in %)” value in data set [3] and in data set [4] was 100% throughout. The efficacy in % in data set [5] and in data set [6] was 100% throughout. The “efficacy (dead or moribund fleas)” value in data set [7] (application rate 1 μg/cm^2) and in data set [7] (application rate 5 μg/cm^2) was 100% in each case. Besides, the “efficacy (dead or moribund ticks)” value in data set [8] (application rate 1 μg/cm^2) and in data set [8] (application rate 5 μg/cm^2) was 100% each time.

Compound `Cn1nc(C(F)(F)C(F)(F)F)c(C(F)(F)F)c1-n1cc(-c2ccc(Cl)c(C(=O)NC3(C#N)CC3)c2)cn1` [Ic-2] gave a logP in data set [1] (setting [9]) of 3.72. The “efficacy (laying of fertile eggs)” value in data set [2] turned out to be 100%. For the same compound, the “efficacy (kill in %)” value in data set [3] and in data set [4] was 100% each time. The efficacy in % in data set [5] and in data set [6] was 100% each time. Besides, the “efficacy (dead or moribund fleas)” value in data set [7] (application rate 1 μg/cm^2) and in data set [7] (application rate 5 μg/cm^2) was 100% in each case. Besides, the “efficacy (dead or moribund ticks)” value in data set [8] (application rate 1 μg/cm^2) and in data set [8] (application rate 5 μg/cm^2) was 100% each time.
